We go through three compounds from US9981989B2, “Ataxia telengiectasia and Rad3-related (ATR) protein kinase inhibitors” (Atrin Pharmaceuticals LLC, priority 2014, dated 2018).

The target in assay [1] is T1, ATR (Homo sapiens, UniProt Q13535).
T1 construct: endogenous in cells; host or cells: HCT119 WT BCL/XL-GFP cells
Put plainly: ATR cellular kinase activity: Chk1 and H2AX phosphorylation in HCT119 WT BCL/XL-GFP cells with aphidicolin, western blot. It is filed as cell-based. The following applies: 5 μM aphidicolin, 4 hours. From the text:
(§1) Chk1 phosphorylation, ATR's primary downstream target, is used as a read-out for ATR activity (Liu Q. et al., Chk1 is an essential kinase that is regulated by Atr and required for the G(2)/M DNA damage checkpoint, Genes Dev. 2000, Jun. 15, 14(12), 1448-1459; and (Jia Li and David F. Stern, Regulation of CHK2 by DNA-dependent Protein Kinase, J Biol. Chem. 2005, 280, 12041-12050). Chk2 phosphorylation (stimulated by 5 Gy irradiation), is a marker of ATM and DNA-PKcs activity, which together with ATR are closely related DNA-damage responsive PIKK family kinases (Shuhei Matsuoka et al., Ataxia telangiectasia-mutated phosphorylates Chk2 in vivo and in vitro, Proceedings of the National Academy of Sciences of the USA, 2000, 97(19), 10389-10394; Li J and Stern D F, Regulation of CHK2 by DNA-dependent protein kinase. The Journal of biological chemistry, 2005, 280, 12041-12050).
HCT119 WT BCL/XL-GFP cells were incubated with decreasing concentrations of test compounds (10-0.003 μM) and 5 μM aphidicolin for 4 hours prior to lysis. Cell lysis and western blotting were performed as in Gilad, Cancer Res, 2010, using the following antibodies as per manufacturers' instructions: pCHK1 (Ser345) (Cell signaling 133D3), pH2AX (S139) (Millipore 05636), GAPDH (loading control, Chemicon MAB374), and MCM3 (loading control, Santa Cruz sc-9850). Test compounds were considered active if significant inhibition of Chk1 phosphorylation was observed.
For orientation: In western blotting, separated proteins are transferred to a membrane and probed.

Assay [2] concerns Chk2 phosphorylation. Put plainly: ATR kinase selectivity: Chk2 phosphorylation in HCT119 WT BCL/XL-GFP cells after 5 Gy irradiation, western blot. It is filed as cell-based, human. The following applies: 5-0.01 μM compound, stimulated by 5 Gy irradiation, pChk2 (T68) (FIG. 4C).
Source text: as §1
HCT119 WT BCL/XL-GFP cells were incubated with decreasing concentrations of test compounds (5-0.01 μM) alone for 30 minutes followed by 5 Gy irradiation and cell lysis 20 minutes post irradiation. Cell lysis and western blotting were performed as in Gilad, Cancer Res, 2010, using the following antibodies as per manufacturers' instructions: pChk2 (T68) (Cell Signaling 2661S), GAPDH (loading control, Chemicon MAB374), and MCM3 (loading control, Santa Cruz sc-9850).

Assay [3] has as its system Jurkat cells. Put plainly: Phenotypical evaluation of ATR inhibition: S-phase arrest of Jurkat cells under aphidicolin replication stress, flow cytometry. It counts as cell-based, human. Particulars: 0.2 μM aphidicolin, 24 hours. Here is the method:
It is known that inhibition of ATR in cells under replicative stress stalls DNA replication, which prevents cells from progressing through S-phase, leading to an accumulation of cells in this cell cycle phase (Kevin D. Smith, et al., Tim-Tipin dysfunction creates an indispensable reliance on the ATR-Chk1 pathway for continued DNA synthesis, J. Cell Biol. 2009, 187, 15-23). In the present experiment Jurkat cells were treated with 0.2 μM aphidicolin to induce replication stress in the presence of test compounds, at concentrations ranging from 10 μM to 0.1 μM, for 24 hours. Cells were fixed and cell-cycle profiles examined by flow cytometry as in Smith, J. Cell Bio. 2009. Test compounds were considered active if stalling of the cells in S-phase was observed.

Where [4] appears, read: 1.25 μM compound, Jurkat cells (FIGS. 3A, 3B).

T1 sequence (Q13535 whole entry): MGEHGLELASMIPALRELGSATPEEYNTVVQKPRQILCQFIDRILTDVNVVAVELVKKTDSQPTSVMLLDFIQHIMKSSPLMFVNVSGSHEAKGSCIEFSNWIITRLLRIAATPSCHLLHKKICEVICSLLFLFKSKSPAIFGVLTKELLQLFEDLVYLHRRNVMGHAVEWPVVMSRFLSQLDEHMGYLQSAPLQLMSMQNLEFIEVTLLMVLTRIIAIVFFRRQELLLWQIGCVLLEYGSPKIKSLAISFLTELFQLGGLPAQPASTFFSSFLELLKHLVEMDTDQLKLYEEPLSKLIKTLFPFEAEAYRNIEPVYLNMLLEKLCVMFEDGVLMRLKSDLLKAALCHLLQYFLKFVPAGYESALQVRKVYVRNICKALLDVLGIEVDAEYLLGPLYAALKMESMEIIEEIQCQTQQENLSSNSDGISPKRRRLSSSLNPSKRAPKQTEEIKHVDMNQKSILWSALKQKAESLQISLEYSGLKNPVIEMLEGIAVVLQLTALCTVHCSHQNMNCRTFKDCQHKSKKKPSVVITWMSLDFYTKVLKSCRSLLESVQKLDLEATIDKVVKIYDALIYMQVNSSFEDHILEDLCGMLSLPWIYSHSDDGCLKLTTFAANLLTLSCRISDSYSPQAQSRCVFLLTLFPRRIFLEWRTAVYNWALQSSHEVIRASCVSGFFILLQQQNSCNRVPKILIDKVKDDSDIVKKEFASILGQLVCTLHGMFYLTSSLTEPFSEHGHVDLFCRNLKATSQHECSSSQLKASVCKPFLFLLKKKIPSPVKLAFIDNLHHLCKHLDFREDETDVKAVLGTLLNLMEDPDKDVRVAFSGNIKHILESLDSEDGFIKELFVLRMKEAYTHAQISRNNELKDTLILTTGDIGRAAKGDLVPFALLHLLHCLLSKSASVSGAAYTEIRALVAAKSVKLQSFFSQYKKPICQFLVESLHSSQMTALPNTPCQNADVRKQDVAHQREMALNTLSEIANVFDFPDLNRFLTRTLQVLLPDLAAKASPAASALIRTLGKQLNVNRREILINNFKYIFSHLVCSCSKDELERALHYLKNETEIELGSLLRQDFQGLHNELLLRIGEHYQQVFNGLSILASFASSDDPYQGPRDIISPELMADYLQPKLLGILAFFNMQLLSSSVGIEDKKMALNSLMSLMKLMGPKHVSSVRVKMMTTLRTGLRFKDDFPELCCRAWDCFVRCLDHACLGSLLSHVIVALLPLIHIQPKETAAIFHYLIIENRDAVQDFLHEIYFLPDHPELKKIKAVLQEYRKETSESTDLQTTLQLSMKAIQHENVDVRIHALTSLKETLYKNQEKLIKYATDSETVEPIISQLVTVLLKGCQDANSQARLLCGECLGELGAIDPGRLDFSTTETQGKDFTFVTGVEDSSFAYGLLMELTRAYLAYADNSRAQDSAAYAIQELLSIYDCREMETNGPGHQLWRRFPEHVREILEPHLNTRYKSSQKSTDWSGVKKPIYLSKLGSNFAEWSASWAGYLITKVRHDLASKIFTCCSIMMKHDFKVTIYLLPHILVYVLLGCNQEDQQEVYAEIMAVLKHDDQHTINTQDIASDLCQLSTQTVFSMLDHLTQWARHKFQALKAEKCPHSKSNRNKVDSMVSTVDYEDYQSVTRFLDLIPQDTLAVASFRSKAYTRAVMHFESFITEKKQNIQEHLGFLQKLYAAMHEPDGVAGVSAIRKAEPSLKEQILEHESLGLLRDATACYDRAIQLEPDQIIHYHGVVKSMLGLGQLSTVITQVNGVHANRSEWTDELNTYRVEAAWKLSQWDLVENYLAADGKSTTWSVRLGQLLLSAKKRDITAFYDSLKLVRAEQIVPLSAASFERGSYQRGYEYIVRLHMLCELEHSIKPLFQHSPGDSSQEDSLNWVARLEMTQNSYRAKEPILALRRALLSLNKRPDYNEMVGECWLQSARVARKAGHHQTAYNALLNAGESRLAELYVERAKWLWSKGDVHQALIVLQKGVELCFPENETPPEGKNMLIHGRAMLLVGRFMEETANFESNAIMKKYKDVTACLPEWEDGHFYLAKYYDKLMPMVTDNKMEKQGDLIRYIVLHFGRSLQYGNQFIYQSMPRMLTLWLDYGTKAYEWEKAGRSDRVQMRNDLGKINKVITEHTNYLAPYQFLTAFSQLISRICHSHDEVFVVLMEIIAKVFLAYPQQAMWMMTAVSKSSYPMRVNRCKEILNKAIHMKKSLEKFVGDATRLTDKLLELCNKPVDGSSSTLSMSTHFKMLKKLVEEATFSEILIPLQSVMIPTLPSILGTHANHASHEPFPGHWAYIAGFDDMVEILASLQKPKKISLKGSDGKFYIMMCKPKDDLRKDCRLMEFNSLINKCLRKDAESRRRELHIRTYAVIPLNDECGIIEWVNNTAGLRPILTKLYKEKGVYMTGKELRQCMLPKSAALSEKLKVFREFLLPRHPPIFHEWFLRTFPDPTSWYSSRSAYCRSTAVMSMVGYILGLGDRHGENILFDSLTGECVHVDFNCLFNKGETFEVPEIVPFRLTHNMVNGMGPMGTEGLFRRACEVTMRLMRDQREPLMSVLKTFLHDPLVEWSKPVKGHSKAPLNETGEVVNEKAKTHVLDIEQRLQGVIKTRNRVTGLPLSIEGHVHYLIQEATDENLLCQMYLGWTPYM
T1 sequence (Q8WXE1 whole entry partner): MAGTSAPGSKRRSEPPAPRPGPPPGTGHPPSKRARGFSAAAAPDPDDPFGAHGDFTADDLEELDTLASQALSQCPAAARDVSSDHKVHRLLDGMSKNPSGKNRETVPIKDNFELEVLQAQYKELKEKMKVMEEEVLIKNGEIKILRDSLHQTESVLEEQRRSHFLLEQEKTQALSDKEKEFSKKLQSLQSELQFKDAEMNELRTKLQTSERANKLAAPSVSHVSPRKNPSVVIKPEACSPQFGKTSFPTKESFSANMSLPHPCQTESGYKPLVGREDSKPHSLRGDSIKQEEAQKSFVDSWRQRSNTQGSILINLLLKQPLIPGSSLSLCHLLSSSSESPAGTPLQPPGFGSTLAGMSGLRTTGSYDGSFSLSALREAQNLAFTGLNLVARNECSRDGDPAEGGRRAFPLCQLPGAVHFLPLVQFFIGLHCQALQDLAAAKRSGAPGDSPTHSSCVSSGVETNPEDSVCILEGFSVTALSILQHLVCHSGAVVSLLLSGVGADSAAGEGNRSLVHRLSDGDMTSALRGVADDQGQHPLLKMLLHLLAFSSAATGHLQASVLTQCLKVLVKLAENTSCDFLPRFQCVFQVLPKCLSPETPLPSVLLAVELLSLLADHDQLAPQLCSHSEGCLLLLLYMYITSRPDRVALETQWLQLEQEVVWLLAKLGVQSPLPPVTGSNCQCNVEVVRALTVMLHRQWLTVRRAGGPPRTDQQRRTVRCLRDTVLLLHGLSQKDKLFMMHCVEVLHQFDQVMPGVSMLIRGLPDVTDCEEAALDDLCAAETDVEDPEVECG

For the compound `CNCc1cccc2c1OCCOCCOCCN(C)S(=O)(=O)c1ccc(cc1)-c1cnc(N)c(n1)C(=O)N2` [P(4)], in assay [1] (pCHK1 (Ser345) (FIG. 4B)), the “concentration at which Chk1 phosphorylation is completely inhibited” value is reported as ≥ 1 μLM and the “lowest dose able to limit phosphorylation of Chk1” value came to 30 nM. For the same compound, in assay [1] (pH2AX (S139) (FIG. 4B)), the “H2AX phosphorylation (DNA double strand breaks)” value is “increased H2AX phosphorylation”. Further, the “levels of Chk2 phosphorylation” value in assay [2] was “did not affect”.
For the compound `CNS(=O)(=O)c1ccc(-c2cnc(N)c(C(=O)Nc3ccccc3OCCOCCOCCO)n2)cc1` [IM11, 3-amino-N-(2-(2-(2-(2-hydroxyethoxy)ethoxy)ethoxy)phenyl)-6-(4-(N-methylsulfamoyl)phenyl)pyrazine-2-carboxamide], the “inhibition of cell cycle progression by accumulation of cells in S-phase” value in assay [3] (setting [4]) was “inactive”.
Consider `CN1CCOCCOCCOc2ccccc2NC(=O)c2nc(cnc2N)-c2ccc(cc2)S1(=O)=O` [P(1)], for which the “inhibition of cell cycle progression by accumulation of cells in S-phase” value in assay [3] (setting [4]) is “significant inhibition of cell cycle progression”; in assay [3] (2.5 μM compound, Jurkat cells (FIG. 2)), “significant inhibition of cell cycle progression”; in assay [3] (10 μM compound, Jurkat cells (FIG. 1)) it was “significant inhibition of cell cycle progression”.
